Reference: patent publication US20260263550A1, “METHODS AND COMPOSITIONS FOR TREATING, PREVENTING, INHIBITING, AMELIORATING OR DELAYING THE ONSET OF OPHTHALMIC CONDITIONS” (Stealth BioTherapeutics Inc., priority 2021, published 2026)

How the values were obtained:
[1] = system: iPSC-derived RPE cells from AMD donors; experiment: Measurement of mitochondrial function (Seahorse XF Cell Mito Stress Test); assay type: cell-based, human; settings: 10, 100, 1000 nM, treatment began 24 hours prior to assay, FIGS. 8AA-8AL
Experimental: Measurement of mitochondrial function. Analysis of mitochondrial function was performed on live iPSC-derived RPE cells from AMD donors (n=3; 2 atrophic with GA, 1 exudative) treated with drug (elamipretide, compound of Formula IIa, or vehicle) as described below and iPSC-derived RPE cells from non-diseased controls (n=2) using the XFe96 Extracellular Flux Analyzer (Agilent Technologies, Santa Clara, California, www.agilent.com) and the Seahorse XF Cell Mito Stress Test (CMST) Kit (Agilent Technologies). iPSC-derived RPE cells were seeded onto a laminin-coated Seahorse XF plates and grown until confluent. Data were normalized by cell count. Drug treatments began 24 hours prior to assay. […]
Cells were stained with DAPI and counted by ImageJ software (National Institute of Health, Bethesda, Maryland, www.nih.gov). […] Oxygen consumption rate was detected under basal conditions followed by the sequential addition of oligomycin, carbonyl cyanide 4-(trifluoromethoxy) phenylhydrazone (FCCP), rotenone, and antimycin A. From these sequential additions, the following parameters can be derived: basal respiration, ATP production, maximal respiration, and spare respiratory capacity.

[2] = system: iPSC-derived RPE cells from AMD donors; experiment: Cell viability assay on nitrite-modified ECM (Real Time-Glo MT Cell Viability Assay); assay type: cell-based, human; settings: 10, 100, 1000 nM; 24 hours; versus vehicle-treated cells; FIG. 8J, *p<0.05
Experimental: General. iPSC-derived RPE were generated from AMD patients (2 atrophic; 1 exudative) and patients with no history of AMD (n=3). To test the therapeutic efficacy of elamipretide and compound of Formula IIa, cell viability was analyzed on nitrite-modified extracellular matrix (ECM), a typical modification of aged Bruch's membrane, for 24 hrs. DNA microarrays were used to elucidate gene expression in AMD-derived RPE cultured on nitrite-modified ECM.
Preparation of RPE cell-derived ECM and nitrite-modified ECM RPE cell-derived ECM plates were prepared from ARPE-19 cells as described in Wang et al., Curr Eye Res. 30:691-702 (2005); Fields et al. (2017); and Moreira et al., Transl Vis Sci Technol. 4:10 (2015). ECM on 96-well plates were used to create two experimental plating surfaces (nontreated ECM and nitrite-modified ECM). Nitrite-modified ECM was prepared by adding 100 mM sodium nitrite to ECM followed by incubation at 37° C. for 7 days. Plates were then washed with DPBS and incubated with DPBS for 4 hours to completely remove the nitrite. […]
Cell viability was measured by Real Time-Glo MT Cell Viability Assay (Promega, Madison, WI, www.promega.com) according to the manufacturer's protocol. […] Luminescent signals were acquired using a BioTek FLx800 plate reader (BioTek).

[3] = 10-day SC study in-life assessments (mortality, body weight, tolerability); assay type: in vivo, cynomolgus monkey
Experimental: Administration of Compound of Formula IIa. The test agent (compound of formula IIa) was administered daily via subcutaneous injection into the scapular and mid-dorsal areas for 10 days. The first day of dosing was designated as Day 1. Dose formulations were allowed to warm up at ambient temperature for at least 30 minutes prior to dosing, as appropriate. The animals were temporarily restrained for dose administration and were not sedated. The volume for each dose was administered over 1 (preferred) or 2 (as necessary) separated injections within the designated area. If a designated injection site was not available for a given animal on any day, the next available test site in the rotation was used. The injection area was marked as frequently as required to allow appropriate visualization of administration sites. On the last injection occasion for each quadrant, the last site of injection was circled, and the circled site was collected for necropsy.
In-life procedures, observations, and measurements.

[4] = SC 5 mg/kg/day for 10 days, 3 males

Cc1cc(O)cc(C)c1C[C@H](NC(=O)[C@H](N)CCCNC(=N)N)C(=O)N[C@@H](CCCCN)c1nc(Cc2ccccc2)no1.Cl.Cl.Cl [Formula IIa, (R)-2-amino-N—((S)-1-(((S)-5-amino-1-(3-benzyl-1,2,4-oxadiazol-5-yl)pentyl)amino)-3-(4-hydroxy-2,6-dimethylphenyl)-1-oxopropan-2-yl)-5-guanidinopentanamide]
mitochondrial function (ATP production; basal respiration; maximal respiration; spare respiratory capacity) [1]: efficacy in improving mitochondrial function | AMD-derived RPE cell viability on nitrite-modified ECM [2]: significantly enhanced | tolerability of administration by subcutaneous injection ([3]; 5 mg/kg/day for 10 days): well-tolerated | body weights, differences related to administration [3, 4]: no differences in body weights | mortality during the study [3, 4]: no mortality
